What all share (format): cell-based
One series has as its system VEGF-C. Put plainly: VEGF-C cytokine analysis (VEGFC human ELISA). As to conditions: HDLEC, 1 ppm and 10 ppm, 48 hours, compared with cells with no treatment (100%), FIG. 3. As to the method:
After culturing human dermal lymphatic endothelial cells in 6 well plates for 24 hours, while the cells with no treatment (N.T) were used as a reference (100%), the cells were treated with the compound represented by Chemical Formula E-1 at each concentration of 1 ppm and 10 ppm and cultured for 48 hours and then measured with respect to production and activity of VEGF-C through a VEGF-C cytokine analysis by using a VEGFC human ELISA Kit (ThermoFisher, U.S.A.) according to a manual, and the results are shown in FIG. 3.

Another series relates to reelin. Briefly: Reelin cytokine analysis (human reelin ELISA). The following applies: HDLEC, 1 ppm and 10 ppm, 48 hours, compared with cells with no treatment (100%), FIG. 2. As to the method: After culturing human dermal lymphatic endothelial cells in 6 well plates for 24 hours, while the cells with no treatment (N.T) were used as a reference (100%), the cells were treated with the compound represented by Chemical Formula E-1 at each concentration of 1 ppm and 10 ppm and cultured for 48 hours and then measured with respect to production and activity of reelin through a reelin cytokine analysis by using human reelin ELISA Kit (Mybiosource, U.S.A.) according to a manual, and the results are shown in FIG. 2.

The subject of series [1] is Human dermal lymphatic endothelial cells (HDLEC). Put plainly: Cytotoxicity analysis (WST-8 cell viability). The following applies: within a concentration range of 200 ppm, cultured 24 hours and 72 hours, FIG. 1. As to the method: Human dermal lymphatic endothelial cells (HDLEC, PromoCell, Germany) were newly cultured in 96 well dishes for one day and then treated with a compound represented by Chemical Formula E-1 (Biogenics Company) at each concentration of 0 ppm ( ? ) to 200 ppm ( ? ). The cells were cultured for 24 hours and 72 hours, and then measured with respect to absorbance at 450 nm by using a QuantiMax WST-8 Cell viability assay kit to check cell viability, and the results are shown in FIG. 1.

Experimental findings from patent publication US11992471B2, “Reelin/VEGF-C production/activation promoter and skin external composition using the same” (AMOREPACIFIC CORPORATION, priority 2021, dated 2024) are described below.

Turning to `NCCS(=O)(=O)O` [Chemical Formula E-1], in the series on VEGF-C, the “production and activity of VEGF-C” value was “further improve production and activity of VEGF-C”. The “production and activity of reelin” value in the series with reelin was “further improve production and activity of reelin”. Besides, the “cytotoxicity (cell viability)” value in series [1] is “no cytotoxicity”.
